Columns and labels:
[1] = tested on: NCI-H522; experiment: cells; format: cell-based; conditions: NCI-H522 (Non-Small Cell Lung Cancer), 10 μM, 48 hours
[2] = tested on: MDA-MB-435; experiment: cells; format: cell-based; conditions: MDA-MB-435 (Melanoma), 10 μM, 48 hours
[3] = tested on: CCRF-CEM; experiment: cells; format: cell-based; conditions: CCRF-CEM (Leukemia), 10 μM, 48 hours
[4] = tested on: OVCAR-5; experiment: cells; format: cell-based; conditions: OVCAR-5 (Ovarian Cancer), 10 μM, 48 hours
[5] = tested on: SK-MEL-28; experiment: cells; format: cell-based; conditions: SK-MEL-28 (Melanoma), 10 μM, 48 hours
[6] = tested on: NCI/ADR-RES; experiment: cells; format: cell-based; conditions: NCI/ADR-RES (Ovarian Cancer), 10 μM, 48 hours
[7] = tested on: KM12; experiment: cells; format: cell-based; conditions: KM12 (Colon Cancer), 10 μM, 48 hours
[8] = tested on: RPMI-8226; experiment: cells; format: cell-based; conditions: RPMI-8226 (Leukemia), 10 μM, 48 hours
[9] = tested on: HOP-62; experiment: cells; format: cell-based; conditions: HOP-62 (Non-Small Cell Lung Cancer), 10 μM, 48 hours
[10] = tested on: HOP-92; experiment: cells; format: cell-based; conditions: HOP-92 (Non-Small Cell Lung Cancer), 10 μM, 48 hours
[11] = tested on: HS 578T; experiment: cells; format: cell-based; conditions: HS 578T (Breast Cancer), 10 μM, 48 hours
[12] = tested on: BT-549; experiment: cells; format: cell-based; conditions: BT-549 (Breast Cancer), 10 μM, 48 hours
[13] = tested on: UACC-257; experiment: cells; format: cell-based; conditions: UACC-257 (Melanoma), 10 μM, 48 hours
[14] = Solubility in DMSO; format: physicochemical; conditions: order SJ-2<SJ-24<SJ-3<SJ-11
Text: The solubility of the four compounds in DMSO is poor, SJ-2<SJ-24<SJ-3<SJ-11, and therefore it is estimated and this is the reason why the three compounds which have previously proven to be effective against PC-3 cell line by SRB assays are ineffective in this experiment.

[15] = tested on: OVCAR-3; experiment: cells; format: cell-based; conditions: OVCAR-3 (Ovarian Cancer), 10 μM, 48 hours
[16] = tested on: HCC-2998; experiment: cells; format: cell-based; conditions: HCC-2998 (Colon Cancer), 10 μM, 48 hours
[17] = tested on: SK-MEL-5; experiment: cells; format: cell-based; conditions: SK-MEL-5 (Melanoma), 10 μM, 48 hours
[18] = tested on: HCT-116; experiment: cells; format: cell-based; conditions: HCT-116 (Colon Cancer), 10 μM, 48 hours
[19] = tested on: UO-31; experiment: cells; format: cell-based; conditions: UO-31 (Renal Cancer), 10 μM, 48 hours
[20] = tested on: SF-268; experiment: cells; format: cell-based; conditions: SF-268 (CNS Cancer), 10 μM, 48 hours
[21] = tested on: NCI-H23; experiment: cells; format: cell-based; conditions: NCI-H23 (Non-Small Cell Lung Cancer), 10 μM, 48 hours
[22] = tested on: HT29; experiment: cells; format: cell-based; conditions: HT29 (Colon Cancer), 10 μM, 48 hours
[23] = tested on: TK-10; experiment: cells; format: cell-based; conditions: TK-10 (Renal Cancer), 10 μM, 48 hours
[24] = tested on: CAKI-1; experiment: cells; format: cell-based; conditions: CAKI-1 (Renal Cancer), 10 μM, 48 hours
[25] = tested on: A549/ATCC; experiment: cells; format: cell-based; conditions: A549/ATCC (Non-Small Cell Lung Cancer), 10 μM, 48 hours
[26] = tested on: HCT-15; experiment: cells; format: cell-based; conditions: HCT-15 (Colon Cancer), 10 μM, 48 hours
[27] = tested on: SK-MEL-2; experiment: cells; format: cell-based; conditions: SK-MEL-2 (Melanoma), 10 μM, 48 hours
[28] = tested on: MOLT-4; experiment: cells; format: cell-based; conditions: MOLT-4 (Leukemia), 10 μM, 48 hours
[29] = tested on: RXF 393; experiment: cells; format: cell-based; conditions: RXF 393 (Renal Cancer), 10 μM, 48 hours
[30] = tested on: IGROV1; experiment: cells; format: cell-based; conditions: IGROV1 (Ovarian Cancer), 10 μM, 48 hours
[31] = tested on: 786-0; experiment: cells; format: cell-based; conditions: 786-0 (Renal Cancer), 10 μM, 48 hours
[32] = tested on: HL-60 (TB); experiment: cells; format: cell-based; conditions: HL-60 (TB) (Leukemia), 10 μM, 48 hours

CN(C)c1nc2ccccc2c2c1-c1ccc(Cl)cc1C2=O [SJ-2, 9-Chloro-6-(dimethylamino)-11H-indeno[1,2-c]quinolin-11-one]
growth percentage [1]: 88.97%
growth percentage [2]: 97.33%
growth percentage [3]: 92.13%
growth percentage [4]: 89.14%
growth percentage [5]: 113.43%
growth percentage [6]: 92.57%
growth percentage [7]: 94.44%
growth percentage [8]: 88.05%
growth percentage [9]: 78.02%
growth percentage [10]: 44.26%
growth percentage [11]: 72.84%
growth percentage [12]: 102.55%
growth percentage [13]: 101.11%
solubility in DMSO [14]: poor
growth percentage [15]: 103.48%
growth percentage [16]: 81.50%
growth percentage [17]: 94.89%
growth percentage [18]: 98.57%
growth percentage [19]: 48.63%
growth percentage [20]: 100.26%
growth percentage [21]: 82.62%
growth percentage [22]: 94.89%
growth percentage [23]: 91.84%
growth percentage [24]: 84.65%
growth percentage [25]: 98.85%
growth percentage [26]: 80.49%
growth percentage [27]: 95.09%
growth percentage [28]: 88.92%
growth percentage [29]: 101.32%
growth percentage [30]: 83.38%
growth percentage [31]: 108.01%
growth percentage [32]: 95.49%

O=C1c2cc(Cl)ccc2-c2c(N3CCOCC3)nc3ccccc3c21 [SJ-8, 9-Chloro-6-morpholino-11H-indeno[1,2-c]quinolin-11-one]
growth percentage [1]: 91.11%
growth percentage [2]: 106.62%
growth percentage [3]: 88.85%
growth percentage [4]: 90.30%
growth percentage [5]: 113.81%
growth percentage [6]: 94.32%
growth percentage [7]: 109.99%
growth percentage [8]: 83.40%
growth percentage [9]: 78.71%
growth percentage [10]: 66.08%
growth percentage [11]: 88.93%
growth percentage [12]: 93.95%
growth percentage [13]: 103.31%
growth percentage [15]: 102.34%
growth percentage [16]: 107.23%
growth percentage [17]: 99.19%
growth percentage [18]: 93.64%
growth percentage [19]: 45.74%
growth percentage [20]: 103.58%
growth percentage [21]: 90.40%
growth percentage [22]: 91.34%
growth percentage [23]: 101.98%
growth percentage [24]: 94.99%
growth percentage [25]: 101.47%
growth percentage [26]: 80.29%
growth percentage [27]: 104.29%
growth percentage [28]: 88.74%
growth percentage [29]: 114.61%
growth percentage [30]: 86.47%
growth percentage [31]: 103.71%
growth percentage [32]: 97.09%

CN1CCN(c2nc3ccccc3c3c2-c2ccc(Cl)cc2C3=O)CC1 [SJ-12, 9-Chloro-6-(4-methylpiperazin-1-yl)-11H-indeno[1,2-c]quinolin-11-one]
growth percentage [1]: 96.62%
growth percentage [2]: 98.43%
growth percentage [3]: 92.44%
growth percentage [4]: 99.31%
growth percentage [5]: 110.81%
growth percentage [6]: 88.19%
growth percentage [7]: 99.06%
growth percentage [8]: 85.92%
growth percentage [9]: 61.42%
growth percentage [10]: 38.50%
growth percentage [11]: 70.47%
growth percentage [12]: 82.89%
growth percentage [13]: 95.34%
growth percentage [15]: 93.41%
growth percentage [16]: 103.21%
growth percentage [17]: 97.67%
growth percentage [18]: 92.78%
growth percentage [19]: 47.60%
growth percentage [20]: 92.35%
growth percentage [21]: 86.27%
growth percentage [22]: 93.76%
growth percentage [23]: 99.56%
growth percentage [24]: 83.81%
growth percentage [25]: 96.43%
growth percentage [26]: 92.83%
growth percentage [27]: 104.36%
growth percentage [28]: 92.90%
growth percentage [29]: 94.00%
growth percentage [30]: 75.03%
growth percentage [31]: 89.51%
growth percentage [32]: 101.15%

COc1nc2ccccc2c2c1-c1ccc(Cl)cc1C2=O [SJ-27, 6-Methoxy-9-chloro-11H-indeno[1,2-c]quinolin-11-one]
growth percentage [1]: 95.89%
growth percentage [2]: 100.31%
growth percentage [3]: 89.25%
growth percentage [4]: 96.81%
growth percentage [5]: 106.24%
growth percentage [6]: 94.29%
growth percentage [7]: 98.35%
growth percentage [8]: 90.30%
growth percentage [9]: 96.01%
growth percentage [10]: 77.75%
growth percentage [11]: 92.74%
growth percentage [12]: 92.95%
growth percentage [13]: 98.20%
growth percentage [15]: 111.89%
growth percentage [16]: 104.46%
growth percentage [17]: 98.51%
growth percentage [18]: 88.60%
growth percentage [19]: 55.69%
growth percentage [20]: 113.64%
growth percentage [21]: 93.26%
growth percentage [22]: 111.60%
growth percentage [24]: 90.65%
growth percentage [25]: 99.70%
growth percentage [26]: 94.98%
growth percentage [27]: 109.44%
growth percentage [28]: 110.33%
growth percentage [29]: 114.49%
growth percentage [30]: 96.92%
growth percentage [31]: 103.51%
growth percentage [32]: 108.77%
